Results reported in patent US12098144B2, “Piperazine indazole glucocorticoid receptor antagonists” (Corcept Therapeutics Incorporated, priority 2021, dated 2024).

The compounds below were run against T1, glucocorticoid receptor (Homo sapiens, UniProt P04150) (assay: Hep G2 TAT Ki: inhibition of dexamethasone-induced TAT in HepG2 cells (96 well)). Details: challenge of 100 nM dexamethasone, IC50 converted to Ki by Cheng and Prusoff equation.
T1 construct: endogenous in cells; ATCC cat
T1 sequence (P04150 1-777): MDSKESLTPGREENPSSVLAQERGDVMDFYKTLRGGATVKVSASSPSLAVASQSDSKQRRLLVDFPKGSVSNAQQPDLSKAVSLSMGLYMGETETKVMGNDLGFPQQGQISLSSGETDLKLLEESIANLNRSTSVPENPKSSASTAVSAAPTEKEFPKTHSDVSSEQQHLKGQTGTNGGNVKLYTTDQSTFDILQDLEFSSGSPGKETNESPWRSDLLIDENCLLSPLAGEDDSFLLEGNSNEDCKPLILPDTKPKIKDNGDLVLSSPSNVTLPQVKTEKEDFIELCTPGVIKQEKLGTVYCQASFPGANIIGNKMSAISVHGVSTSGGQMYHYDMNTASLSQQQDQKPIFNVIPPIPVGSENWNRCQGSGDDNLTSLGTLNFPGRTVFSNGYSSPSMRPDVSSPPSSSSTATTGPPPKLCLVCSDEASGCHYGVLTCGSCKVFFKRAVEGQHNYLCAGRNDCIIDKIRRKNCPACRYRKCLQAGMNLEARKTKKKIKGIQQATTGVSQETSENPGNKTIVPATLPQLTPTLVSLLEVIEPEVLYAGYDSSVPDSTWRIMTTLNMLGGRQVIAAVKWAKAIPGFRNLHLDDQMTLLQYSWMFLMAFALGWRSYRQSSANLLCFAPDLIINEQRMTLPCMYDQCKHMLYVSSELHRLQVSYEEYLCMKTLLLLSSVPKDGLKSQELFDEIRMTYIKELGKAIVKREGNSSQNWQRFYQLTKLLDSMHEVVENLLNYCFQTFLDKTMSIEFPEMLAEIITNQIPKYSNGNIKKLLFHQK
Format: cell-based
Procedure: Glucocorticoid mediated activation of TAT occurs by transactivation of glucocorticoid response elements in the TAT promoter by glucocorticoid receptor-agonist complex.
HepG2 cells were cultured using MEME media supplemented with 10% (v/v) foetal bovine serum; 2 mM L-glutamine and 1% (v/v) NEAA at 37° C., 5%/95% (v/v) CO2/air.
Compounds were serially half log diluted in 100% (v/v) dimethylsulphoxide from a 10 mM stock.
HepG2 cells were then lysed with 30 μl of cell lysis buffer containing a protease inhibitor cocktail for 15 minutes at 4° C. […] After 2 hours incubation at 37° C. the reaction was terminated by the addition of 15 μl of 10M aqueous potassium hydroxide solution, and the plates incubated for a further 30 minutes at 37° C.
[compound] and fitting the data to a 4 parameter logistic equation.

Row | Ki | SMILES
1 | 68 nM | Cc1cc2c(cnn2-c2ccc(F)cc2)cc1C1CN(S(=O)(=O)c2cnn(C)n2)CCN1CC1CC1 (stereo not drawn) [Example 12, 5-(1-(cyclopropylmethyl)-4-((2-methyl-2H-1,2,3-triazol-4-yl)sulfonyl)piperazin-2-yl)-1-(4-fluorophenyl)-6-methyl-1H-indazole]
2 | 11 nM | Cc1ncc(S(=O)(=O)N2CCN(CC(C)C(F)(F)F)C(c3cc4cnn(-c5ccc(F)cc5)c4cc3C)C2)s1 (single isomer, unassigned) [Example 147, 5-((3-(1-(4-fluorophenyl)-6-methyl-1H-indazol-5-yl)-4-(3,3,3-trifluoro-2-methylpropyl)piperazin-1-yl)sulfonyl)-2-methylthiazole]
3 | 42 nM | Cc1cc2c(cnn2-c2ccc(F)cc2)cc1C1CN(S(=O)(=O)c2c(C)nnn2C)CCN1CC(C)C (single isomer, unassigned) [Example 100, 5-(4-((1,4-dimethyl-1H-1,2,3-triazol-5-yl)sulfonyl)-1-isobutylpiperazin-2-yl)-1-(4-fluorophenyl)-6-methyl-1H-indazole]
4 | 97 nM | Cc1cc2c(cnn2-c2ccc(F)cc2)cc1C1CN(S(=O)(=O)c2cnn(C)n2)CCN1CC1CCOCC1 (stereo not drawn) [Example 13, 1-(4-fluorophenyl)-6-methyl-5-(4-((2-methyl-2H-1,2,3-triazol-4-yl)sulfonyl)-1-((tetrahydro-2H-pyran-4-yl)methyl)piperazin-2-yl)-1H-indazole]
5 | 11 nM | Cc1ncc(S(=O)(=O)N2CCN(CCC(F)(F)F)C(c3cc4cnn(-c5ccc(F)cc5)c4cc3C)C2)s1 (single isomer, unassigned) [Example 133, 5-((3-(1-(4-fluorophenyl)-6-methyl-1H-indazol-5-yl)-4-(3,3,3-trifluoropropyl)piperazin-1-yl)sulfonyl)-2-methylthiazole]
6 | 45 nM | Cc1cc2c(cnn2-c2ccc(F)cc2)cc1[C@@H]1CN(S(=O)(=O)c2cnn(C)n2)CCN1C[C@H](C)F (racemic) [Example 158, 1-(4-fluorophenyl)-5-(1-(2-fluoropropyl)-4-((2-methyl-2H-1,2,3-triazol-4-yl)sulfonyl)piperazin-2-yl)-6-methyl-1H-indazole]
7 | 65 nM | Cc1cc2c(cnn2-c2ccc(F)cc2)cc1C1CN(S(=O)(=O)C2COC2)CCN1CC(C)C (single isomer, unassigned) [Example 111, 1-(4-fluorophenyl)-5-(1-isobutyl-4-(oxetan-3-ylsulfonyl)piperazin-2-yl)-6-methyl-1H-indazole]
8 | 12 nM | Cc1cc2c(cnn2-c2ccc(F)cc2)cc1C1CN(S(=O)(=O)c2nccs2)CCN1CC(C)C (single isomer, unassigned) [Example 109, 2-((3-(1-(4-fluorophenyl)-6-methyl-1H-indazol-5-yl)-4-isobutylpiperazin-1-yl)sulfonyl)thiazole]
9 | 230 nM | Cc1cc2c(cnn2-c2ccc(F)cc2)cc1C1CN(S(=O)(=O)c2cnn(C)n2)CCN1C1COC1 (single isomer, unassigned) [Example 28, 1-(4-fluorophenyl)-6-methyl-5-(4-((2-methyl-2H-1,2,3-triazol-4-yl)sulfonyl)-1-(oxetan-3-yl)piperazin-2-yl)-1H-indazole]
10 | 65 nM | Cc1cc2c(cnn2-c2ccc(F)cc2)cc1C1CN(S(=O)(=O)c2cnn(C)n2)CCN1CC1CCCO1 (single isomer, unassigned) [Example 120, 1-(4-fluorophenyl)-6-methyl-5-(4-((2-methyl-2H-1,2,3-triazol-4-yl)sulfonyl)-1-((tetrahydrofuran-2-yl)methyl)piperazin-2-yl)-1H-indazole]
11 | 7.5 nM | Cc1nc(S(=O)(=O)N2CCN(CC(C)C(F)(F)F)C(c3cc4cnn(-c5ccc(F)cc5)c4cc3C)C2)cs1 (single isomer, unassigned) [Example 146, 4-((3-(1-(4-fluorophenyl)-6-methyl-1H-indazol-5-yl)-4-(3,3,3-trifluoro-2-methylpropyl)piperazin-1-yl)sulfonyl)-2-methylthiazole]
12 | 35 nM | Cc1cc2c(cnn2-c2ccc(F)cc2)cc1C1CN(S(=O)(=O)c2ccn(C)n2)CCN1CC(C)C (single isomer, unassigned) [Example 1, 1-(4-fluorophenyl)-5-(1-isobutyl-4-((1-methyl-1H-pyrazol-3-yl)sulfonyl)piperazin-2-yl)-6-methyl-1H-indazole]
13 | 24 nM | CO[C@H]1C[C@@H](CN2CCN(S(=O)(=O)c3csc(C)n3)CC2c2cc3cnn(-c4ccc(F)cc4)c3cc2C)C1 (single isomer, unassigned) [Example 171, 4-((3-(1-(4-fluorophenyl)-6-methyl-1H-indazol-5-yl)-4-((3-methoxycyclobutyl)methyl)piperazin-1-yl)sulfonyl)-2-methylthiazole]
14 | 520 nM | Cc1cc2c(cnn2-c2ccc(F)cc2)cc1C1CN(S(=O)(=O)c2cnn(C)n2)CCN1CC1COC1 (stereo not drawn) [Example 16, 1-(4-fluorophenyl)-6-methyl-5-(4-((2-methyl-2H-1,2,3-triazol-4-yl)sulfonyl)-1-(oxetan-3-ylmethyl)piperazin-2-yl)-1H-indazole]

The next lines start with the compound.

Row | SMILES | Ki
15 | Cc1cc2c(cnn2-c2ccc(F)cc2)cc1C1CN(S(=O)(=O)c2ccc(C#N)cc2)CCN1CC(C)C (single isomer, unassigned) [Example 98, 4-((3-(1-(4-fluorophenyl)-6-methyl-1H-indazol-5-yl)-4-isobutylpiperazin-1-yl)sulfonyl)benzonitrile] | 25 nM
16 | Cc1cc2c(cnn2-c2ccc(F)cc2)cc1C1CN(S(=O)(=O)c2cnn(C)n2)CCN1Cc1ccccc1 (stereo not drawn) [Example 2, 5-(1-benzyl-4-((2-methyl-2H-1,2,3-triazol-4-yl)sulfonyl)piperazin-2-yl)-1-(4-fluorophenyl)-6-methyl-1H-indazole] | 81 nM
17 | Cc1cc2c(cnn2-c2ccc(F)cc2)cc1C1CN(S(=O)(=O)c2cnn(C3CCOCC3)c2)CCN1CC(C)C (stereo not drawn) [Example 36, 1-(4-fluorophenyl)-5-(1-isobutyl-4-((1-(tetrahydro-2H-pyran-4-yl)-1H-pyrazol-4-yl)sulfonyl)piperazin-2-yl)-6-methyl-1H-indazole] | 50 nM
18 | Cc1cc2c(cnn2-c2ccc(F)cc2)cc1C1CN(S(=O)(=O)c2cccnc2)CCN1CCC(F)(F)F (single isomer, unassigned) [Example 132, 1-(4-fluorophenyl)-6-methyl-5-(4-(pyridin-3-ylsulfonyl)-1-(3,3,3-trifluoropropyl)piperazin-2-yl)-1H-indazole] | 13 nM
19 | Cc1cc2c(cnn2-c2ccc(F)cc2)cc1C1CN(S(=O)(=O)c2cnn(C)n2)CCN1Cc1ccccc1 (single isomer, unassigned) [Example 5, 5-(1-benzyl-4-((2-methyl-2H-1,2,3-triazol-4-yl)sulfonyl)piperazin-2-yl)-1-(4-fluorophenyl)-6-methyl-1H-indazole] | 420 nM
20 | Cc1cc2c(cnn2-c2ccc(F)cc2)cc1C1CN(S(=O)(=O)CC(C)C)CCN1CC(C)C (single isomer, unassigned) [Example 52, 1-(4-fluorophenyl)-5-(1-isobutyl-4-(isobutylsulfonyl)piperazin-2-yl)-6-methyl-1H-indazole] | 24 nM
21 | Cc1cc2c(cnn2-c2ccc(F)cc2)cc1C1CN(S(=O)(=O)c2cccnc2C#N)CCN1CC(C)C (single isomer, unassigned) [Example 107, 3-((3-(1-(4-fluorophenyl)-6-methyl-1H-indazol-5-yl)-4-isobutylpiperazin-1-yl)sulfonyl)picolinonitrile] | 22 nM
22 | CC(=O)N1CCN(S(=O)(=O)c2cnn(C)n2)CC1c1cc2cnn(-c3ccc(F)cc3)c2cc1C (stereo not drawn) [Example 34, 1-(2-(1-(4-fluorophenyl)-6-methyl-1H-indazol-5-yl)-4-((2-methyl-2H-1,2,3-triazol-4-yl)sulfonyl)piperazin-1-yl)ethan-1-one] | 430 nM
23 | COCCn1cc(S(=O)(=O)N2CCN(CCC(F)(F)F)C(c3cc4cnn(-c5ccc(F)cc5)c4cc3C)C2)cn1 (single isomer, unassigned) [Example 136, 1-(4-fluorophenyl)-5-(4-((1-(2-methoxyethyl)-1H-pyrazol-4-yl)sulfonyl)-1-(3,3,3-trifluoropropyl)piperazin-2-yl)-6-methyl-1H-indazole] | 57 nM
24 | Cc1cc2c(cnn2-c2ccc(F)c(C#N)c2)cc1C1CN(S(=O)(=O)c2cnn(C)n2)CCN1CCC(F)(F)F (single isomer, unassigned) [Example 170, 2-fluoro-5-(6-methyl-5-(4-((2-methyl-2H-1,2,3-triazol-4-yl)sulfonyl)-1-(3,3,3-trifluoropropyl)piperazin-2-yl)-1H-indazol-1-yl)benzonitrile] | 91 nM
